One block for each compound: values may come before it.
Test system: 282377-053-R-J1-PDC complex spheroids, viability
Experiment: Anticancer human tumor 282377-053-R-J1-PDC patient-derived colon adenocarcinoma cell line growth inhibition [GQUAD]
Details: for IC50: curve of first compound; for viability, T/C: stronger effect = lower value
Procedure, shortened: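 Viability of tumor cells grown as complex spheroids with endothelial and stromal cells, exposed to drug combinations. Top concentration at or near clinical Cmax (else 10 microM), diluted in half-log increments.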

[1] = second compound 0.0316 µM, first compound 0.000999 µM
[2] = second compound 0.0316 µM, first compound 0.00316 µM
[3] = second compound 0.0316 µM, first compound 0.00999 µM
[4] = second compound 0.0316 µM, first compound 0.0316 µM
[5] = second compound 0.0316 µM, first compound 0.0999 µM
[6] = second compound 0.0316 µM, first compound 0.316 µM
[7] = second compound 0.1 µM, first compound 0.000999 µM
[8] = second compound 0.1 µM, first compound 0.00316 µM
[9] = second compound 0.1 µM, first compound 0.00999 µM
[10] = second compound 0.1 µM, first compound 0.0316 µM
[11] = second compound 0.1 µM, first compound 0.0999 µM
[12] = second compound 0.1 µM, first compound 0.316 µM
[13] = second compound 0.316 µM, first compound 0.000999 µM
[14] = second compound 0.316 µM, first compound 0.00316 µM
[15] = second compound 0.316 µM, first compound 0.00999 µM
[16] = second compound 0.316 µM, first compound 0.0316 µM
[17] = second compound 0.316 µM, first compound 0.0999 µM
[18] = second compound 0.316 µM, first compound 0.316 µM
[19] = second compound 1 µM, first compound 0.000999 µM
[20] = second compound 1 µM, first compound 0.00316 µM
[21] = second compound 1 µM, first compound 0.00999 µM
[22] = second compound 1 µM, first compound 0.0316 µM
[23] = second compound 1 µM, first compound 0.0999 µM
[24] = second compound 1 µM, first compound 0.316 µM
[25] = second compound 3.16 µM, first compound 0.000999 µM
[26] = second compound 3.16 µM, first compound 0.00316 µM
[27] = second compound 3.16 µM, first compound 0.00999 µM
[28] = second compound 3.16 µM, first compound 0.0316 µM
[29] = second compound 3.16 µM, first compound 0.0999 µM
[30] = second compound 3.16 µM, first compound 0.316 µM
[31] = second compound 10 µM, first compound 0.000999 µM
[32] = second compound 10 µM, first compound 0.00316 µM
[33] = second compound 10 µM, first compound 0.00999 µM
[34] = second compound 10 µM, first compound 0.0316 µM
[35] = second compound 10 µM, first compound 0.0999 µM
[36] = second compound 10 µM, first compound 0.316 µM
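Note: spheroids exposed to compounds for 7 days before readout.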
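Throughout, for viability, T/C: percent of vehicle DMSO control viability with 100% = untreated-like growth.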

Compound: Cn1ncnc1[C@H]1c2n[nH]c(=O)c3cc(F)cc(c23)N[C@@H]1c1ccc(F)cc1 + Cc1[nH]c2ccc(F)cc2c1-c1nc2c3cccnc3c3ncccc3c2[nH]1
IC50 (second compound 0.0316 µM): > 316 nM
IC50 (second compound 0.1 µM): > 316 nM
IC50 (second compound 0.316 µM): > 316 nM
IC50 (second compound 1 µM): > 316 nM
IC50 (second compound 3.16 µM): > 316 nM
IC50 (second compound 10 µM): > 316 nM
viability, T/C [1]: 95.8%
viability, T/C [2]: 80.1%
viability, T/C [3]: 96.7%
viability, T/C [4]: 88.1%
viability, T/C [5]: 109%
viability, T/C [6]: 90.2%
viability, T/C [7]: 91.8%
viability, T/C [8]: 87.3%
viability, T/C [9]: 101%
viability, T/C [10]: 85.3%
viability, T/C [11]: 93.2%
viability, T/C [12]: 97.9%
viability, T/C [13]: 95.1%
viability, T/C [14]: 104%
viability, T/C [15]: 81.1%
viability, T/C [16]: 110%
viability, T/C [17]: 90.5%
viability, T/C [18]: 106%
viability, T/C [19]: 79.3%
viability, T/C [20]: 87.7%
viability, T/C [21]: 80.7%
viability, T/C [22]: 89.2%
viability, T/C [23]: 111%
viability, T/C [24]: 86%
viability, T/C [25]: 67.7%
viability, T/C [26]: 65.8%
viability, T/C [27]: 71.8%
viability, T/C [28]: 66.4%
viability, T/C [29]: 86.8%
viability, T/C [30]: 70.3%
viability, T/C [31]: 48.9%
viability, T/C [32]: 51.7%
viability, T/C [33]: 57.2%
viability, T/C [34]: 45%
viability, T/C [35]: 41.1%
viability, T/C [36]: 57.4%

Compound: CCc1c2c(nc3ccc(O)cc13)-c1cc3c(c(=O)n1C2)COC(=O)[C@]3(O)CC + CN(C)c1ccc(Nc2c3ccc(NC(=O)CCN4CCCC4)cc3nc3cc(NC(=O)CCN4CCCC4)ccc23)cc1
IC50 (second compound 0.0316 µM): 170 nM
IC50 (second compound 0.1 µM): 162 nM
IC50 (second compound 0.316 µM): 148 nM
IC50 (second compound 1 µM): 117 nM
IC50 (second compound 3.16 µM): 211 nM
IC50 (second compound 10 µM): 218 nM
viability, T/C [1]: 102%
viability, T/C [2]: 104%
viability, T/C [3]: 85.5%
viability, T/C [4]: 69.5%
viability, T/C [5]: 61.8%
viability, T/C [6]: 40%
viability, T/C [7]: 104%
viability, T/C [8]: 90.9%
viability, T/C [9]: 92.1%
viability, T/C [10]: 60.7%
viability, T/C [11]: 61.2%
viability, T/C [12]: 40.9%
viability, T/C [13]: 110%
viability, T/C [14]: 107%
viability, T/C [15]: 71.6%
viability, T/C [16]: 70.9%
viability, T/C [17]: 53.8%
viability, T/C [18]: 43%
viability, T/C [19]: 95.2%
viability, T/C [20]: 97.6%
viability, T/C [21]: 92.4%
viability, T/C [22]: 76.8%
viability, T/C [23]: 51.2%
viability, T/C [24]: 42.5%
viability, T/C [25]: 103%
viability, T/C [26]: 105%
viability, T/C [27]: 91.6%
viability, T/C [28]: 68.7%
viability, T/C [29]: 63.1%
viability, T/C [30]: 43.7%
viability, T/C [31]: 108%
viability, T/C [32]: 102%
viability, T/C [33]: 99.5%
viability, T/C [34]: 86.2%
viability, T/C [35]: 63.1%
viability, T/C [36]: 43.6%

IC50 (second compound 0.0316 µM): 2280 nM
IC50 (second compound 0.1 µM): 1480 nM
IC50 (second compound 0.316 µM): 393 nM
IC50 (second compound 1 µM): 34.9 nM
IC50 (second compound 3.16 µM): < 31.6 nM
IC50 (second compound 10 µM): < 31.6 nM
Compound: CCCS(=O)(=O)Nc1ccc(F)c(C(=O)c2c[nH]c3ncc(-c4ccc(Cl)cc4)cc23)c1F + Cc1cnc(CNC(=O)c2c(=O)c3ccc(N4CCCN(C)CC4)nc3n3c2sc2ccccc23)cn1
viability, T/C [4]: 89.5%
viability, T/C (second compound 0.0316 µM, first compound 0.1 µM): 53.1%
viability, T/C [6]: 72%
viability, T/C (second compound 0.0316 µM, first compound 1 µM): 52.7%
viability, T/C (second compound 0.0316 µM, first compound 3.16 µM): 54.9%
viability, T/C (second compound 0.0316 µM, first compound 10 µM): 11.8%
viability, T/C [10]: 77.5%
viability, T/C (second compound 0.1 µM, first compound 0.1 µM): 63.9%
viability, T/C [12]: 56.6%
viability, T/C (second compound 0.1 µM, first compound 1 µM): 55.7%
viability, T/C (second compound 0.1 µM, first compound 3.16 µM): 45.4%
viability, T/C (second compound 0.1 µM, first compound 10 µM): 11.6%
viability, T/C [16]: 64.5%
viability, T/C (second compound 0.316 µM, first compound 0.1 µM): 57%
viability, T/C [18]: 46.9%
viability, T/C (second compound 0.316 µM, first compound 1 µM): 39.5%
viability, T/C (second compound 0.316 µM, first compound 3.16 µM): 41.4%
viability, T/C (second compound 0.316 µM, first compound 10 µM): 11.3%
viability, T/C [22]: 52.6%
viability, T/C (second compound 1 µM, first compound 0.1 µM): 44.6%
viability, T/C [24]: 38.3%
viability, T/C (second compound 1 µM, first compound 1 µM): 30.3%
viability, T/C (second compound 1 µM, first compound 3.16 µM): 34.4%
viability, T/C (second compound 1 µM, first compound 10 µM): 9.31%
viability, T/C [28]: 39.5%
viability, T/C (second compound 3.16 µM, first compound 0.1 µM): 29.4%
viability, T/C [30]: 28.8%
viability, T/C (second compound 3.16 µM, first compound 1 µM): 25.9%
viability, T/C (second compound 3.16 µM, first compound 3.16 µM): 30.4%
viability, T/C (second compound 3.16 µM, first compound 10 µM): 0.11%
viability, T/C [34]: 31.3%
viability, T/C (second compound 10 µM, first compound 0.1 µM): 31.3%
viability, T/C [36]: 22.9%
viability, T/C (second compound 10 µM, first compound 1 µM): 23.3%
viability, T/C (second compound 10 µM, first compound 3.16 µM): 7.59%
viability, T/C (second compound 10 µM, first compound 10 µM): 0.33%

Reference: PubChem BioAssay AID2060501 (Molecular Pharmacology Branch, DTP, NCI, 2025)
